In patent US8703098B2, “Labelled adrenomedullin derivatives and their use for imaging and therapy” (Institut de Cardiologie de Montreal, priority 2004, dated 2014):
Ends that are not written are not given here.

Columns and labels:
[1] = In vivo single-pass pulmonary clearance of 125I-rAM(1-50) in dogs, single bolus indicator-dilution technique; set-up: species or system dog; settings: for mean single-pass pulmonary extraction of 125I-rAM(1-50) after administration of the drug: dogs, drug as intravenous bolus of 100 nmol 5 min before second experiment, mean ±S.E.M.
Protocol: Dogs were anaesthetized and prepared as described in detail in reference, which is hereby incorporated by reference. A catheter was inserted into the carotid artery and positioned just above the aortic valve. This catheter was connected to a peristaltic pump for automated blood withdrawal. Another catheter was placed into the jugular vein and positioned in the right ventricular outflow tract to allow bolus injection of the study tracers. A bolus was prepared by adding 3.3 μCi of 125I-rAM(1-50) (2.9 pmol) to 3 ml of Evans-Blue-dye labelled albumin and 0.9% saline to give a final volume of 6 ml. The mixture was separated into three equal parts for the two successive experiments in each animal and to realize dilution-curve standards. A baseline single-bolus indicator-dilution experiment was performed.
The collected samples were processed and indicator-dilution curves constructed and analyzed as described in previously cited reference 13. Cardiac output and mean tracer AM extraction during the pulmonary transit time were computed from the curves. Mean tracer extraction corresponded to the difference between the areas of the outflow curve of the vascular reference (albumin) and that of the extracted tracer (AM). Recirculation of the tracers apparent in the terminal portion of the curves was removed by linear extrapolation of the semi-logarithmic down slopes.
(§1) Multiple group comparisons were performed by factorial ANOVA, followed, when a significant interaction was found, by the Bonferroni/Dunn t test. Plasma kinetics of 125I-rAM(1-50) was fitted using a two-phase exponential decay equation with GraphPad Prism (version 4.0) software. […] Comparison between venous and arterial rAM(1-50) levels in plasma was performed with a two-tailed paired Student's t test. In the canine experiments, the effect of drugs on AM extraction was analyzed by two-tailed paired Student's t tests. A P value of <0.05 was considered significant. All results are reported as means ±S.E.M.

[2] = Plasma kinetics of 125I-rAM(1-50) after single intravenous injection in rats; format: in vivo, rat; settings: drug given 5 min before the 125I-rAM(1-50) bolus
Protocol: (§2) All experimental procedures were performed in accordance with the regulations and ethical guidelines from Canadian Council for the Care of Laboratory Animals, and received approval by the Animal Ethics and Research Committee of the Montreal Heart Institute. Male Sprague-Dawley rats (Charles River), weighing between 400-450 g, were anaesthetized by an initial intramuscular dose of xylazine (10 mg/kg of body weight) and ketamine (50 mg/kg of body weight), followed by an intra-peritoneal injection of heparin (2000 units; Sigma). Catheters were inserted into the right carotid artery and jugular vein. Heart rate and systemic blood pressure were monitored continuously. […] Venous and arterial blood samples (3 ml) were collected and centrifuged (1875 g, 15 min, 4° C.) and the plasma saved for subsequent measurement of irAM (immunoreactive AM). A similar amount of saline was infused into the animals to prevent hypovolaemia.
The animals were then killed and the lungs, liver, kidneys (en bloc with the adrenal glands) and heart were removed and gravity drained. […] Results are expressed as a percentage of total radioactivity injected. […]
Multiple group comparisons were performed by factorial ANOVA, followed, when a significant interaction was found, by the Bonferroni/Dunn t test. […] In the canine experiments, the effect of drugs on AM extraction was analyzed by two-tailed paired Student's t tests. […]

[3] = Biodistribution and pulmonary retention of 125I-rAM(1-50) in rats after intravenous or intra-arterial injection; format: in vivo, rat; settings: drug given 5 min before tracer
Protocol: as §2
The animals were then killed and the lungs, liver, kidneys (en bloc with the adrenal glands) and heart were removed and gravity drained. […] Results are expressed as a percentage of total radioactivity injected.
The drugs were given by either intraarterial (n=10 in each group) or intravenous (n=10 in each group) injection 5 min before the ^125I-rAM(1-50) bolus. Plasma samples and tissues were treated as described above.
as §1

[4] = dog, in vivo, iv
Protocol: All experimental procedures were performed in accordance with regulations and ethical guidelines from Canadian Council for the Care of Laboratory Animals, and received approval by the animal ethics and research committee of the Montreal Heart Institute. Mongrel dogs weighing between 20-30 kg and presenting negative Dirofilaria imitis blood test results were anesthetized by an initial intravenous dose of pentobarbital sodium (50 mg/kg). Animals were intubated and mechanically ventilated using room air. Cutaneous electrocardiographic leads were installed, and 18F cathlon with three-way was installed on both saphenous vein for 0.9% sodium chloride perfusion, radiolabelled injection and blood collection. A right arterial femoral catheter was also inserted using the Seldinger technique for continuous blood pressure monitoring.
Purified and buffered ^99mTc-DTPA-hAM1-52 samples were injected in right saphenous vein (n=6). A series of 2 mL blood samples were collected 1 min after the initial AM injection for a 10-min period, then repeated every 5 min for the following 50-min period. […]
Plasma kinetics of ^99mTc-DTPA-hAM1-52 was fitted using a two-phase exponential decay equation with GraphPad Prism version 4.0 software. Time effects on each organ biodistribution were analyzed by two-way repeated measures ANOVA followed, when a significant interaction was found, by Bonferroni/Dunn t-test. […]

Row | Compound | mean single-pass pulmonary extraction of 125I-rAM(1-50) after administration of the drug [1] [%] | effect of administration prior to radiolabelled rAM(1-50) on its plasma kinetics [2] | effect of prior administration on 125I-rAM(1-50) activity retained in kidneys [3] | effect of prior administration on biodistribution of 125I-rAM(1-50) [3] | effect of prior administration on pulmonary first-pass retention of 125I-rAM(1-50) (intra-arterial compared with intravenous) [3] | mean extraction of 125I-rAM(1-50) after injection of the drug, typical experiment ([1]; same dog, second experiment (FIG. 4B)) [%] | effect of prior administration on 125I-rAM(1-50) lung activity [3] | effect of prior administration on amount of 125I-rAM(1-50) retained by the liver, kidneys and heart [3] | ratio of rate constant for exchange between the central and peripheral compartments (k1-2/k2-1) [4]
1 | hAM(22-52): C-terminal AM fragment that blocks the specific AM receptor (Bachem) | 31.4±3.3 | did not modify plasma kinetics | elevated the retained activity | did not significantly modify this distribution | not affected |  |  |  | 
2 | rAM(1-50): unlabelled rat adrenomedullin, amino acids 1-50 (American Peptide) (YRQSMNQGSRSTGCRFGTCTMQKLAHQIYQFTDKDKDGMAPRNKISPQGY; ends and bridges not checked; cysteine pairing not given here) | 21.9±2.4 | did not modify plasma kinetics |  |  | did not decrease further the already lowered pulmonary retention after intra-arterial compared with intravenous injections | 12 | important reduction in lung activity | significantly increased | 
3 | CC[C@H](C)[C@H](NC(=O)[C@H](CCC(N)=O)NC(=O)[C@H](Cc1c[nH]cn1)NC(=O)[C@H](C)NC(=O)[C@H](CC(C)C)NC(=O)[C@H](CCCCN)NC(=O)[C@H](CCC(N)=O)NC(=O)[C@@H](NC(=O)[C@@H](NC(=O)[C@@H]1CSSC[C@H](NC(=O)CNC(=O)[C@H](Cc2ccccc2)NC(=O)[C@H](CO)NC(=O)[C@H](CCCNC(=N)N)NC(=O)[C@H](CC(C)C)NC(=O)CNC(=O)[C@H](CCC(N)=O)NC(=O)[C@H](Cc2ccccc2)NC(=O)[C@H](CC(N)=O)NC(=O)[C@H](CC(N)=O)NC(=O)[C@H](CCSC)NC(=O)[C@H](CO)NC(=O)[C@H](CCC(N)=O)NC(=O)[C@H](CCCNC(=N)N)NC(=O)[C@H](Cc2ccc(O)cc2)NC(=O)CN(CCN(CCN(CC(=O)O)CC(=O)O)CC(=O)O)CC(=O)O)C(=O)N[C@@H](CCCNC(=N)N)C(=O)N[C@@H](Cc2ccccc2)C(=O)NCC(=O)N[C@@H]([C@@H](C)O)C(=O)N1)[C@@H](C)O)C(C)C)C(=O)N[C@@H](Cc1ccc(O)cc1)C(=O)N[C@@H](CCC(N)=O)C(=O)N[C@@H](Cc1ccccc1)C(=O)N[C@H](C(=O)N[C@@H](CC(=O)O)C(=O)N[C@@H](CCCCN)C(=O)N[C@@H](CC(=O)O)C(=O)N[C@@H](CCCCN)C(=O)N[C@@H](CC(=O)O)C(=O)N[C@@H](CC(N)=O)C(=O)N[C@H](C(=O)N[C@@H](C)C(=O)N1CCC[C@H]1C(=O)N[C@@H](CCCNC(=N)N)C(=O)N[C@@H](CO)C(=O)N[C@@H](CCCCN)C(=O)N[C@H](C(=O)N[C@@H](CO)C(=O)N1CCC[C@H]1C(=O)N[C@@H](CCC(N)=O)C(=O)NCC(=O)N[C@@H](Cc1ccc(O)cc1)C(N)=O)[C@@H](C)CC)C(C)C)[C@@H](C)O [99mTc-DTPA-hAM1-52, metal not drawn] |  |  |  |  |  |  |  |  | 24.09
